This is an account of results in patent US5496697A, “Methods and apparatus for detecting the effect of cell affecting agents on living cells” (priority 1993, dated 1996).

For one assay, the system named is Dx5. Conditions: previously characterized; cited from earlier work.
A further assay relates to MDCK cells. Put plainly: metabolic rate of MDCK cells grown on the silicon sensor surface. Format: cell-based, canine. As to conditions: 3 μM epinephrine, primary introduction.

Regarding `COc1cccc2c1C(=O)c1c(O)c3c(c(O)c1C2=O)C[C@@](O)(C(=O)CO)C[C@@H]3O[C@H]1C[C@H](N)[C@H](O)[C@H](C)O1` [doxorubicin], the “resistance of Dx5” value with Dx5 was “resistant”.
For `CNC[C@H](O)c1ccc(O)c(O)c1` [epinephrine], the “change of metabolic rate vs. control rate” value in the assay on MDCK cells is recorded as “did not significantly alter the metabolic rate”.
As for `CC[C@]1(O)C[C@H]2CN(CCc3c([nH]c4ccccc34)[C@@](C(=O)OC)(c3cc4c(cc3OC)N(C=O)[C@H]3[C@@](O)(C(=O)OC)[C@H](OC(C)=O)[C@]5(CC)C=CCN6CC[C@]43[C@@H]65)C2)C1` [vincristine], the “resistance of Dx5” value with Dx5 is “resistant”.
